Active and inactive are the calls of the source. How the calls were made is not given here.
Test system: CCRIS mutagenicity, Ames/micronucleus/aberration tests
Assay: CCRIS mutagenicity studies
Description: The CCRIS database contains chemical records with carcinogenicity, mutagenicity, tumor promotion, and tumor inhibition test results. It was developed by the National Cancer Institute (NCI). Data are derived from studies cited in primary journals, current awareness tools, NCI reports, and other sources. Test results have been reviewed by experts in carcinogenesis and mutagenesis.
CCRIS provides historical information from the years 1985 - 2011. It is no longer updated.
This is an archive assay for CCRIS mutagenicity studies.

`C[C@@H]1O[C@@H](O[C@H]2C[C@@H](O)[C@]3(CO)[C@H]4[C@H](O)C[C@]5(C)[C@@H](C6=CC(=O)OC6)CC[C@]5(O)[C@@H]4CC[C@]3(O)C2)[C@H](O)[C@H](O)[C@H]1O` was tested, and the mutagenic call (Test System: MOUSE LYMPHOMA, Strain/Indicator: L5178Y (TK+/TK-), Metabolic Activation: NONE, Method: SUSPENSION/PLATE) was “active; positive”.
`CC(O)CO` (configuration not stated) (tested in a mixture with another compound) was tested, and the mutagenic call (Test System: AMES SALMONELLA TYPHIMURIUM, Strain/Indicator: TA102, Metabolic Activation: RAT, LIVER, S-9, PHENOBARBITAL AND 5,6-BENZOFLAVONE, Method: STANDARD PLATE) was “inactive; negative”, the mutagenic call (Test System: AMES SALMONELLA TYPHIMURIUM, Strain/Indicator: TA2638, Metabolic Activation: RAT, LIVER, S-9, PHENOBARBITAL AND 5,6-BENZOFLAVONE, Method: STANDARD PLATE) was “inactive; negative” and the mutagenic call (Test System: E. COLI, Strain/Indicator: WP2 (PKM101), Metabolic Activation: RAT, LIVER, S-9, PHENOBARBITAL AND 5,6-BENZOFLAVONE, Method: STANDARD PLATE) was “active; positive”. For the same molecule, the mutagenic call (Test System: E. COLI, Strain/Indicator: WP2 UVRA (PKM101), Metabolic Activation: RAT, LIVER, S-9, PHENOBARBITAL AND 5,6-BENZOFLAVONE, Method: STANDARD PLATE) was “active; positive”.
In the case of `CN(C)N=Nc1ccc(C(=O)O)cc1`, the mutagenic call (Test System: AMES SALMONELLA TYPHIMURIUM, Strain/Indicator: G46, Metabolic Activation: NONE, Method: STANDARD PLATE) is reported as “inactive; negative”, the mutagenic call (Test System: AMES SALMONELLA TYPHIMURIUM, Strain/Indicator: G46, Metabolic Activation: RAT, LIVER, S-9, PHENOBARBITAL, Method: STANDARD PLATE) is reported as “active; positive” and the mutagenic call (Test System: AMES SALMONELLA TYPHIMURIUM, Strain/Indicator: TA92, Metabolic Activation: NONE, Method: STANDARD PLATE) is reported as “active; positive”. The mutagenic call (Test System: AMES SALMONELLA TYPHIMURIUM, Strain/Indicator: TA92, Metabolic Activation: RAT, LIVER, S-9, PHENOBARBITAL, Method: PREINCUBATION) was “inactive; negative”, the mutagenic call (Test System: AMES SALMONELLA TYPHIMURIUM, Strain/Indicator: TA92, Metabolic Activation: RAT, LIVER, S-9, PHENOBARBITAL, Method: STANDARD PLATE) was “inactive; negative” and the mutagenic call (Test System: AMES SALMONELLA TYPHIMURIUM, Strain/Indicator: TA100, Metabolic Activation: NONE, Method: STANDARD PLATE) was “inactive; negative”. For the same molecule, the mutagenic call (Test System: AMES SALMONELLA TYPHIMURIUM, Strain/Indicator: TA100, Metabolic Activation: RAT, LIVER, S-9, PHENOBARBITAL, Method: STANDARD PLATE) was “inactive; negative”, the mutagenic call (Test System: E. COLI, Strain/Indicator: TM6, Metabolic Activation: NONE, Method: STANDARD PLATE) was “active; positive” and the mutagenic call (Test System: E. COLI, Strain/Indicator: TM6, Metabolic Activation: RAT, LIVER, S-9 PHENOBARBITAL, Method: STANDARD PLATE) was “active; positive”. The mutagenic call (Test System: E. COLI, Strain/Indicator: TM9, Metabolic Activation: NONE, Method: STANDARD PLATE) was “active; positive”, the mutagenic call (Test System: E. COLI, Strain/Indicator: TM9, Metabolic Activation: RAT, LIVER, S-9 PHENOBARBITAL, Method: STANDARD PLATE) was “active; positive” and the mutagenic call (Test System: E. COLI, Strain/Indicator: WP2, Metabolic Activation: NONE, Method: STANDARD PLATE) was “active; positive”. For the same molecule, the mutagenic call (Test System: E. COLI, Strain/Indicator: WP2, Metabolic Activation: RAT, LIVER, S-9 PHENOBARBITAL, Method: STANDARD PLATE) was “active; positive”, the mutagenic call (Test System: E. COLI, Strain/Indicator: WP2 UVRA, Metabolic Activation: NONE, Method: STANDARD PLATE) was “active; positive” and the mutagenic call (Test System: E. COLI, Strain/Indicator: WP2 UVRA, Metabolic Activation: RAT, LIVER, S-9 PHENOBARBITAL, Method: STANDARD PLATE) was “active; positive”.
In the case of `O=C(O)c1c(Cl)c(Cl)c(Cl)c(Cl)c1-c1c2cc(I)c(=O)c(I)c-2oc2c(I)c(O)c(I)cc12`, the mutagenic call (End Point: IN VIVO MICRONUCLEUS, Test System: BONE MARROW POLYCHROMATIC ERYTHROCYTES, Species: MOUSE, Strain/Sex: DDY/MALE, Route: IP) is reported as “inactive; negative”.
With `OCCS` the mutagenic call (Test System: AMES SALMONELLA TYPHIMURIUM, Strain/Indicator: TA100, Metabolic Activation: NONE, Method: PREINCUBATION) was “inactive; negative”.

Source: PubChem BioAssay AID1259407 (Chemical Carcinogenesis Research Information System (CCRIS), 2018)
